Entries after “also recorded” stand apart in the source; their conditions may differ.
Experiments:
neddylation of cullin 3 = assay: Western blotting of neddylated and un-neddylated cullin 3 in THLE2 liver cell line; format: cell-based
Procedure: (§1) A key function of cullin neddylation is to control E3 ubiquitin ligase activity of the cullin complex, which in turn regulates protein turnover in cells. DI-591 (Example 58) was evaluated for its effect on neddylation of 5 different cullins in the THLE2 liver cell line with the data shown in FIG. 1. Immortalized THLE2 liver cell line was treated by a dose-range of DCN1 inhibitor DI-591 or a dose-range of MLN4924 for 24 h. The protein levels of neddylated- and un-neddylated-cullin family proteins and several well-known substrates of cullins were examined by western blotting analysis. GAPDH was used as a loading control. […] Immunohistochemical data confirmed the increased NRF2 protein by Example 58 in liver cells.
(§2) DI-591 (Example 58) was further compared to MLN4924 for their ability to inhibit neddylation of cullin 1 and cullin 3 in the THLE2 liver cell line with the data shown in FIG. 2. THLE2 liver cell line was treated by DI-591 at 10 μM or MLN4924 at 0.3 μM for 5 minutes (5m), 30 minutes (30 m), 2 hours (2h) and 24 hours (24h). […] In comparison, MLN4924 inhibits the neddylation of both cullin 1 and 3.
(§3) Immortalized liver THLE2 (ATCC® CRL-2706™) cell lines was purchased from the ATCC (Rockville, MD). The cell line was maintained in BEGM Bronchial Epithelial Cell Growth Medium from Lonza/Clonetics Corporation (CC3170, Walkersville, MD) supplemented with 10% FBS and pen-strep at 37° C. in a humidified incubator with 5% CO2. Esophageal cancer KYSE140 cell line (ACC 348) was purchased from DSMZ (Braunschweig, Germany). The cell line was maintained RPMI1640 supplemented with 10% FBS and pen-strep at 37° C. in a humidified incubator with 5% CO2.
(§4) Treated cells were lysed by RIPA buffer supplemented with protease inhibitor. The expression level of indicated proteins was examined by western blotting analysis. GAPDH was used as a loading control. Antibodies were purchased: Cullin 1 (sc-11384), Cullin2 (sc-10781), Cullin5 (sc-13014) and Cullin7 (sc-134565) from Santa Cruz Biotech. […]

neddylation of cullin 1 = assay: Western blotting of neddylated and un-neddylated cullin 1 in THLE2 liver cell line; format: cell-based; settings: DI-591 at 10 μM or MLN4924 at 0.3 μM, 5 minutes to 24 hours
Procedure: as §2, §3, §4

Cyclin E, BimEL, CDT1 = assay: Western blotting of Cul-1 and Cul-4A substrates in THLE2 liver cell line; format: cell-based; settings: dose-range, 24 h
Procedure: as §1, §3
(§5) Treated cells were lysed by RIPA buffer supplemented with protease inhibitor. The expression level of indicated proteins was examined by western blotting analysis. GAPDH was used as a loading control. Antibodies were purchased: Cullin 1 (sc-11384), Cullin2 (sc-10781), Cullin5 (sc-13014) and Cullin7 (sc-134565) from Santa Cruz Biotech. (Santa Cruz, CA); Cullin 4A (PA5-14542), Cullin 4B (PA5-35239), Cullin9 (PA5-20277), DCN2 (DCUN1D2, PA5-31607) and DCN3 (DCUN1D3, PA5-44000) from ThermoFisher Scientific (Wayne, MI); Cullin 3 (2759), NRF2 (12721), HO-1 (70081), NQ01 (3187), Cyclin E (4129), Bim (2819), Keap1 (8047) and UBC12 (4913) from Cell Signaling Technology (Boston, MA); DCN1 (GWB-E3D700) from GenWay Biotech (San Diego, CA). Results are representative of three independent experiments.

NRF2 = assay: Western blotting of NRF2 and NRF2-regulated proteins in THLE2 liver cell line; format: cell-based; settings: for abundance of NRF2 protein (cullin 3 substrate) / accumulation of NRF2 and NQ01 protein: THLE2 liver cell line; for abundance of NRF2 protein (cullin 3 substrate): dose-range, 24 h, western blotting; for accumulation of NRF2 and NQ01 protein: 10 μM, different time points
Procedure: as §1
NRF2 is a transcriptional factor and a master regulator of antioxidant responses, regulating numerous detoxifying and antioxidant genes, such as the phase II detoxification enzymes heme oxygenase (HO1) and NAD(P)H:quinone oxidoreductase-1 (NQ01) (36). DI-591 (Example 58) was compared to dimethyl fumarate (DMF) for their effect on NRF2 and NQ01 protein levels in the THLE2 liver cell line with DI-591DD included as a control with the data shown in FIG. 3. THLE2 liver cell line was treated by DI-591 at 10 μM, DI-591DD at 10 μM or DMF at 10 μM for different time points.
as §3, §5

[1] = test system: mRNA of NRF2, NQ01 and HO-1; assay: qRT-PCR of NRF2 and NRF2-regulated genes in THLE2 liver cell line; format: cell-based; settings: 10 μM, different time points
From the text: FIG. 4 provides qRT-PCR analysis of mRNA levels of NRF2 and NRF2-regulated genes in the THLE2 liver cell line. […] The relative mRNA levels of NRF2, NQ01 and HO-1 were examined by quantitative real-time RT-PCR assay.

DCN1 = DCN1 (Homo sapiens (Human), UniProt Q96GG9); assay: FP protein saturation experiment (Kd of fluorescent probe); settings: fluorescein-labeled probe; read-out: Binding affinity to DCN1, Kd
Chain of DCN1 (Q96GG9 58-259): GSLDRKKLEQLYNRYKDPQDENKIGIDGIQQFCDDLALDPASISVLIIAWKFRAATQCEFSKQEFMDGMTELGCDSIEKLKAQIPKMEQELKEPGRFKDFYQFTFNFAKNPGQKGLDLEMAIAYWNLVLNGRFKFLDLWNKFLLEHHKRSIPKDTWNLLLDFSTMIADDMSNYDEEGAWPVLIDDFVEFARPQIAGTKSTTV
Procedure: The Fluorescence Polarization (FP) competitive binding assays were performed to accurately determine the binding affinities of our DCN1 inhibitors. A novel FAM labeled fluorescent probe compound (46) was designed and synthesized based on one of our potent small molecule DCN1 inhibitors. […] Serial dilutions of proteins were mixed with 46 to a final volume of 200 μl in the assay buffer (100 mM phosphate buffer, pH=6.5, with 0.02% Tween-20 and 2% DMSO). Final probe concentration was 5 nM for both assays. Plates were incubated at room temperature for 30 minutes with gentle shaking to assure equilibrium. FP values in millipolarization units (mP) were measured using the Infinite M-1000 plate reader (Tecan U.S., Research Triangle Park, NC) in Microfluor 1 96-well, black, round-bottom plates (Thermo Scientific, Waltham, MA) at an excitation wavelength of 485 nm and an emission wavelength of 530 nm.
Human DCN1 (residues 58-259) were cloned into a pDEST17 plasmid containing an N-terminal His6 tag. DCN2 (residues 62-259), DCN3 (residues 86-304), DCN4 (residues 102-292) and DCN5 (residues 47-237) were cloned into an N-terminal His6-TEV expression vector. Pure proteins were derived from the same expression and purification protocols. […]

[2] = THLE2, DI-591 at 10 μM or MLN4924 at 0.3 μM, 5 minutes to 24 hours

Structure (SMILES): NS(=O)(=O)OC[C@@H]1C[C@@H](n2ccc3c(N[C@H]4CCc5ccccc54)ncnc32)C[C@@H]1O [MLN4924, reference compound]
- neddylation of cullin 3 (neddylation of cullin 3; [2]): inhibits
- neddylation of cullin 1 (neddylation of cullin 1): inhibits
- protein levels of Cyclin E, BimEL and CDT1 (substrates of Cul-1 and Cul-4A) (Cyclin E, BimEL, CDT1): induces accumulation
- abundance of NRF2 protein (cullin 3 substrate) (NRF2): induces accumulation

Structure (SMILES): CCC(=O)N[C@@H](Cc1nc2ccc(C(C)C)cc2s1)C(=O)N[C@H](CNC(=O)CCN1CCOCC1)C1CCCCC1 [Example 58, (S)—N—((S)-1-cyclohexyl-2-(3-morpholinopropanamido)ethyl)-3-(6-isopropylbenzo[d]thiazol-2-yl)-2-propionamidopropanamide]
- neddylation of cullin 3 (neddylation of cullin 3; [2]): rapidly inhibits
- neddylation of cullin 3 (neddylation of cullin 3; THLE2 liver cell line, dose-range, 24 h): selectively and dose-dependently inhibits
- neddylation of cullin 1 (neddylation of cullin 1): little effect
- protein levels of Cyclin E, BimEL and CDT1 (substrates of Cul-1 and Cul-4A) (Cyclin E, BimEL, CDT1): no or minimal effect
- mRNA level of NRF2 [1]: no effect
- mRNA levels of NQ01 and HO1 (NRF2-regulated genes) [1]: upregulates; also recorded: clearly increases
- accumulation of NRF2 and NQ01 protein (NRF2): stimulate the accumulation
- abundance of NRF2 protein (cullin 3 substrate) (NRF2): induces upregulation; also recorded: selectively increased
- NRF2 protein, immunohistochemical data (NRF2; liver cells): increased

Structure (SMILES): CCC(=O)N[C@H](Cc1nc2ccc(C(C)C)cc2s1)C(=O)N[C@@H](CNC(=O)CCN1CCOCC1)C1CCCCC1 [Example 123, (R)—N—((R)-1-cyclohexyl-2-(3-morpholinopropanamido)ethyl)-3-(6-isopropylbenzo[d]thiazol-2-yl)-2-propionamidopropanamide]
- protein levels of Cyclin E, BimEL and CDT1 (substrates of Cul-1 and Cul-4A) (Cyclin E, BimEL, CDT1): no effect
- mRNA level of NRF2 [1]: no effect
- mRNA levels of NQ01 and HO1 (NRF2-regulated genes) [1]: not
- accumulation of NRF2 and NQ01 protein (NRF2): not
- abundance of NRF2 protein (cullin 3 substrate) (NRF2): no effect

Structure (SMILES): CCC(=O)N[C@@H](Cc1nc2ccc(C(C)C)cc2s1)C(=O)N[C@H](CNC(=O)C1CCN(CCOCCOCCOCCNC(=O)c2ccc3c(c2)C(=O)OC32c3ccc(O)cc3Oc3cc(O)ccc32)CC1)C1CCCCC1 [Example 127, N—((S)-2-cyclohexyl-2-((S)-3-(6-isopropylbenzo[d]thiazol-2-yl)-2-propionamidopropanamido)ethyl)-1-(1-(3′,6′-dihydroxy-3-oxo-3H-spiro [isobenzofuran-1,9′-xanthen]-5-yl)-1-oxo-5,8,11-trioxa-2-azatridecan-13-yl)piperidine-4-carboxamide]
- Kd (DCN1): 0.0219 µM
